From PMC9395488, “First-in-human study of IM156, a novel potent biguanide oxidative phosphorylation (OXPHOS) inhibitor, in patients with advanced solid tumors” (Investigational New Drugs, 2022)

System: patients with advanced solid tumors
Assay: First-in-human phase 1 dose-escalation study: safety, DLTs, adverse events
Format: in vivo
From the text: This multicenter first-in-human dose-escalation phase 1 study (clinicaltrials.gov identifier: NCT03272256) was designed to determine the MTD or RP2D and to evaluate the safety and tolerability of IM156. Secondary endpoints included PK characteristics, efficacy assessment (objective response rate [ORR], disease control rate [DCR], duration of response [DoR] and progression-free survival [PFS]). Furthermore, exploratory objectives included identification and profiling of IM156 metabolites, evaluations of exploratory PD markers of IM156, and evaluations of any potential relationship between putative biomarkers and safety/efficacy parameters of IM156. The study was conducted in accordance with Good Clinical Practice, the International Council for Harmonisation, and guidelines governing clinical study conduct and the ethical principles originating from the Declaration of Helsinki. The study was approved by each Institutional Review Board and patients provided written informed consent. Patients were enrolled at three sites in South Korea.
The initial dose and schedule of IM156 was chosen based on animal toxicology studies. […] IM156 was administered in the fasted state, with no food for at least 2 h before and 1 h after dosing.
Three DLT-evaluable patients were enrolled at each dose level. If there were no DLTs or other prohibitive adverse events (AEs), the Safety Committee was allowed to recommend escalation to the next highest dose level. If 1 DLT occurred in the first 3 DLT-evaluable patients, enrollment in that cohort was expanded to an additional 3 DLT-evaluable patients; if ≥ 2 DLTs were reported in a cohort, that dose was considered above the MTD.
Safety was assessed through vital signs, weight, laboratory assessments, physical examinations, electrocardiogram, and reporting of AEs as graded by the National Cancer Institute’s Common Terminology Criteria for Adverse Events v4.03 (NCI-CTCAE).
DLTs were defined as the following AEs if they were attributed as related to IM156: asymptomatic grade 4 neutropenia lasting for ≥ 5 days; febrile neutropenia, regardless of grade; grade 4 thrombocytopenia or grade 3 thrombocytopenia with bleeding; any grade ≥ 3 non-hematologic AE (except grade 3 hypertension and grade 3 nausea, vomiting or diarrhea for which proper measures for prevention and treatment were not implemented, and alopecia); blood lactate levels > 5 mmol; grade ≥ 2 AE prohibiting dosing of IM156 for ≥ 21 continuous days except for alterations in serum calcium or phosphorus levels. The safety analysis includes all patients who received at least one dose of study drug.
The safety population was defined as all patients who received at least one dose of IM156. The PK population was not defined in the protocol but included all patients with sufficient PK data to perform adequate PK modeling. The efficacy population included all patients who underwent at least one tumor imaging assessment while receiving IM156. Safety was assessed using descriptive statistics (e.g., DLTs, AEs, laboratory tests, physical examination, 12-lead ECG). The incidence and number of events were reported for the DLTs observed in Cycle 1 per dose group. […] Adverse events and TRAEs were standardized with the System Organ Class and the Preferred Term using the Medical Dictionary for Regulatory Activities v23.0. In addition, TEAEs, serious adverse events (SAEs), TEAE severity, and TEAEs leading to withdrawal were presented by dose group. Efficacy data were to be presented by Waterfall and Swim Lane plots. Time to event endpoints (e.g., DoR, PFS) were determined using Kaplan–Meier estimations with the median value for each endpoint summarized.

[1] = DL1 100 mg orally every other day (n=3)

Compound: NC(=Nc1ccc(OC(F)(F)F)cc1)N=C(N)N1CCCC1 [IM156]
- SAE Abdominal distension: Causality (100 mg QOD): Unlikely
- SAE Abdominal distension: Dose Interrupted (100 mg QOD): Yes
- SAE Abdominal distension: Grade (100 mg QOD): 2
- SAE Abdominal distension: Outcome (100 mg QOD): Recovered without sequelae
- SAE Gastric Obstruction: Causality (100 mg QOD): Unlikely
- SAE Gastric Obstruction: Dose Interrupted (100 mg QOD): Yes
- SAE Gastric Obstruction: Grade (100 mg QOD): 3
- SAE Gastric Obstruction: Outcome (100 mg QOD): Recovered without sequelae
- SAE Ileus: Causality (200 mg QOD): Unlikely
- SAE Ileus: Dose Interrupted (200 mg QOD): No
- SAE Ileus: Grade (200 mg QOD): 3
- SAE Ileus: Outcome (200 mg QOD): Recovered without sequelae
- SAE Cystitis: Causality (800 mg QOD): Unlikely
- SAE Cystitis: Dose Interrupted (800 mg QOD): Yes
- SAE Cystitis: Grade (800 mg QOD): 2
- SAE Cystitis: Outcome (800 mg QOD): Recovered without sequelae
- SAE Worsen abdominal pain: Causality (800 mg QOD): Unlikely
- SAE Worsen abdominal pain: Dose Interrupted (800 mg QOD): Yes
- SAE Worsen abdominal pain: Grade (800 mg QOD): 3
- SAE Worsen abdominal pain: Outcome (800 mg QOD): Resolved to Grade 1
- SAE Akathisia: Causality (1,200 mg QD): Unlikely
- SAE Akathisia: Dose Interrupted (1,200 mg QD): No
- SAE Akathisia: Grade (1,200 mg QD): 2
- SAE Akathisia: Outcome (1,200 mg QD): Recovered without sequelae
- SAE Lethargy: Causality (1,200 mg QD): Unlikely
- SAE Lethargy: Dose Interrupted (1,200 mg QD): Yes
- SAE Lethargy: Grade (1,200 mg QD): 2
- SAE Lethargy: Outcome (1,200 mg QD): Recovered without sequelae
- SAE Perforated Appendicitis: Causality (1,200 mg QD): Unlikely
- SAE Perforated Appendicitis: Dose Interrupted (1,200 mg QD): No
- SAE Perforated Appendicitis: Grade (1,200 mg QD): 3
- SAE Perforated Appendicitis: Outcome (1,200 mg QD): Recovered without sequelae
- tolerability (1,200 mg QD, due to nausea): not well tolerated
- SAE Nausea: Causality (1,200 mg QOD): Possible
- SAE Nausea: Dose Interrupted (1,200 mg QOD): Yes
- SAE Nausea: Grade (1,200 mg QOD): 3
- trend of blood lactate levels with dose or exposure (100 to 1,200 mg): no trend
- dose-limiting toxicities (DLTs), all dose levels (100 to 1,200 mg QOD or QD, cycle 1): no DLTs
- TEAE Abdominal distension, grade 2 (DL1 100 mg QOD (n=3)): 1
- TEAE Ascites, grade 1 (DL1 100 mg QOD (n=3)): 1
- TEAE Blood creatinine increased, grade 1 (DL1 100 mg QOD (n=3)): 1
- TEAE Decreased appetite, grade 1 (DL1 100 mg QOD (n=3)): 1
- TEAE Diarrhoea, grade 2 (DL1 100 mg QOD (n=3)): 1
- TEAE Gastrointestinal pain, grade 2 (DL1 100 mg QOD (n=3)): 1
- TEAE Hypoalbuminaemia, grade 2 (DL1 100 mg QOD (n=3)): 1
- TEAE Large intestinal obstruction, grade 2 (DL1 100 mg QOD (n=3)): 1
- TEAE Nausea, grade 1 (DL1 100 mg QOD (n=3)): 1
- TEAE Obstruction gastric, grade 3 (DL1 100 mg QOD (n=3)): 1
- TEAE Proctalgia, grade 2 (DL1 100 mg QOD (n=3)): 1
- TEAE Pyrexia, grade 1 (DL1 100 mg QOD (n=3)): 1
- TEAE Vomiting, grade 1 (DL1 100 mg QOD (n=3)): 1
- TRAE Abdominal Pain, > G3 (patients) (DL1 100 mg QOD oral, N = 3): 0
- TRAE Abdominal Pain, All grades (patients) (DL1 100 mg QOD oral, N = 3): 0
- TRAE Blood Lactic Acid increased, > G3 (patients) (DL1 100 mg QOD oral, N = 3): 0
- TRAE Blood Lactic Acid increased, All grades (patients) (DL1 100 mg QOD oral, N = 3): 0
- TRAE Constipation, > G3 (patients) (DL1 100 mg QOD oral, N = 3): 0
- TRAE Constipation, All grades (patients) (DL1 100 mg QOD oral, N = 3): 0
- TRAE Decreased appetite, > G3 (patients) (DL1 100 mg QOD oral, N = 3): 0
- TRAE Decreased appetite, All grades (patients) (DL1 100 mg QOD oral, N = 3): 0
- TRAE Diarrhoea, > G3 (patients) (DL1 100 mg QOD oral, N = 3): 0
- TRAE Diarrhoea, All grades (patients) (DL1 100 mg QOD oral, N = 3): 0
- TRAE Fatigue, > G3 (patients) (DL1 100 mg QOD oral, N = 3): 0
- TRAE Fatigue, All grades (patients) (DL1 100 mg QOD oral, N = 3): 0
- TRAE Insomnia, > G3 (patients) (DL1 100 mg QOD oral, N = 3): 0
- TRAE Insomnia, All grades (patients) (DL1 100 mg QOD oral, N = 3): 0
- TRAE Nausea, > G3 (patients) (DL1 100 mg QOD oral, N = 3): 0
- TRAE Nausea, All grades (patients) (DL1 100 mg QOD oral, N = 3): 0
- TRAE Vomiting, > G3 (patients) (DL1 100 mg QOD oral, N = 3): 0
- TRAE Vomiting, All grades (patients) (DL1 100 mg QOD oral, N = 3): 0
- TEAE Adrenal insufficiency grade 1 [1]: 0
- TEAE Adrenal insufficiency grade 2 [1]: 0
- TEAE Adrenal insufficiency grade 3 [1]: 0
- TEAE Adrenal insufficiency grade 4 [1]: 0
- TEAE Anaemia grade 1 [1]: 0
- TEAE Anaemia grade 2 [1]: 1
- TEAE Anaemia grade 3 [1]: 0
- TEAE Anaemia grade 4 [1]: 0
- TEAE Appendicitis perforated grade 1 [1]: 0
- TEAE Appendicitis perforated grade 2 [1]: 0
- TEAE Appendicitis perforated grade 3 [1]: 0
- TEAE Appendicitis perforated grade 4 [1]: 0
- TEAE Back pain grade 1 [1]: 0
- TEAE Back pain grade 2 [1]: 0
- TEAE Back pain grade 3 [1]: 0
- TEAE Back pain grade 4 [1]: 0
- TEAE Cystitis grade 1 [1]: 0
- TEAE Cystitis grade 2 [1]: 0
- TEAE Cystitis grade 3 [1]: 0
- TEAE Cystitis grade 4 [1]: 0
- TEAE Dry skin grade 1 [1]: 0
- TEAE Dry skin grade 2 [1]: 0
- TEAE Dry skin grade 3 [1]: 0
- TEAE Dry skin grade 4 [1]: 0
- TEAE Flank pain grade 1 [1]: 0
- TEAE Flank pain grade 2 [1]: 0
- TEAE Flank pain grade 3 [1]: 0
- TEAE Flank pain grade 4 [1]: 0
- TEAE Hypertension grade 1 [1]: 0
- TEAE Hypertension grade 2 [1]: 0
- TEAE Hypertension grade 3 [1]: 0
- TEAE Hypertension grade 4 [1]: 0
- TEAE Hypotension grade 1 [1]: 0
- TEAE Hypotension grade 2 [1]: 0
- TEAE Hypotension grade 3 [1]: 0
- TEAE Hypotension grade 4 [1]: 0
- TEAE Insomnia grade 1 [1]: 0
- TEAE Insomnia grade 2 [1]: 0
- TEAE Insomnia grade 3 [1]: 0
- TEAE Insomnia grade 4 [1]: 0
- TEAE Pain in extremity grade 1 [1]: 0
- TEAE Pain in extremity grade 2 [1]: 0
- TEAE Pain in extremity grade 3 [1]: 0
- TEAE Pain in extremity grade 4 [1]: 0
- TEAE Pruritus grade 1 [1]: 0
- TEAE Pruritus grade 2 [1]: 0
- TEAE Pruritus grade 3 [1]: 0
- TEAE Pruritus grade 4 [1]: 0
